Laboratory results: patent US5102912A, “Hydroxyoctadecadienic acid for the treatment of estrogen-dependent disease” (Kanoldt Arzneimittel GmbH, priority 1990, dated 1992)

How the values were obtained:
[1] = Storage stability of the prepared acid; format: physicochemical
aromatase [2] = target: T1, aromatase (Homo sapiens, UniProt P11511); experiment: Inhibition of aromatase activity, placenta microsomes, substrate androstenedione 10 nM (Example 3); format: biochemical; conditions: 10 min
T1 construct: suspension of human placenta microsomes as a source of aromatase enzyme; from tissue; host or cells: human placenta microsomes
T1 sequence (P11511 1-503): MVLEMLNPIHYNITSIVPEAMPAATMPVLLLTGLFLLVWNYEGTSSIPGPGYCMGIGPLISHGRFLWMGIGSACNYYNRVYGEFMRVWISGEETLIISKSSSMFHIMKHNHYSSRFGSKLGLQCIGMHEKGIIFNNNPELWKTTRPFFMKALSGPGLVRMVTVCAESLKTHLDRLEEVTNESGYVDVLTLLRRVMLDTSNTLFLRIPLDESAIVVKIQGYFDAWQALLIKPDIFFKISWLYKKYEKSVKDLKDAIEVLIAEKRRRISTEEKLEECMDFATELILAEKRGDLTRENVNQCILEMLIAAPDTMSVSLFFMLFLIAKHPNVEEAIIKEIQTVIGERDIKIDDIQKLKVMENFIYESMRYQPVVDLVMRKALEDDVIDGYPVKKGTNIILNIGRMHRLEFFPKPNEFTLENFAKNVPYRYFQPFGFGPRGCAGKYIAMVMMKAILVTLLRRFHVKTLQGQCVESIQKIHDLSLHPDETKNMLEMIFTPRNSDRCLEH
Protocol: Inhibitor tests were carried out with a suspension of human placenta microsomes as a source of aromatase enzyme. The substrate used in these competitive inhibition tests was androstenedione.
Experimental conditions for enzyme inhibition
enzyme source: placenta microsomes
substrate: androstenedione (10 nM)
tracer: ^3 H-androstenedione
Co-substrate: NADPH-regenerating system
The substrate, ^3 H-androstenedione was incubated in the presence of aromatase enzyme with and without the acid inhibitor. The aromatization of androstenedione to estradiol was measured by the release of ^3 H2 O in the process of aromatization. Aromatase activity in the presence of 9-hydroxy-10(trans)-12(cis)-octadecadienoic acid was compared with that of a control group without this inhibiting additive. Aromatase activity is shown as percent of reaction in table 2.

aromatase [3] = target: T1, aromatase; experiment: Inhibition of aromatase activity, placenta microsomes, substrate androstenedione 100 nM (Example 4); format: biochemical
[4] = Effect in the treatment of estrogen-dependent diseases, keto form compared with hydroxy compound

activity at 1 µg/mL (aromatase [2]; inhibitor 1 mg/l, without inhibitor 100 ± 9.1, read-out: Aromatase Activity (% reaction) with inhibitor)	activity at 10 µg/mL (aromatase [2]; inhibitor 10 mg/l, without inhibitor 100 ± 8.1, read-out: Aromatase Activity (% reaction) with inhibitor)	activity at 100 µg/mL (aromatase [2]; inhibitor 100 mg/l, without inhibitor 100 ± 5.5, read-out: Aromatase Activity (% reaction) with inhibitor)	activity at 1 µg/mL (aromatase [3]; 10 min, inhibitor 1 mg/l, androstenedione 100 nM, 10 minutes, average value ± S.D. (n = 3), without inhibitor 100 ± 9.1, read-out: Aromatase activity (% reaction) with inhibitor)	activity at 10 µg/mL (aromatase [3]; 10 min, inhibitor 10 mg/l, androstenedione 100 nM, 10 minutes, average value ± S.D. (n = 3), without inhibitor 100 ± 8.1, read-out: Aromatase activity (% reaction) with inhibitor)	activity at 100 µg/mL (aromatase [3]; 10 min, inhibitor 100 mg/l, androstenedione 100 nM, 10 minutes, average value ± S.D. (n = 3), without inhibitor 100 ± 5.5, read-out: Aromatase activity (% reaction) with inhibitor)	inhibition of aromatase (in words) (aromatase [3]; Example 4, table 4)	aromatase inhibiting effect relative to the acid in hydroxy form (aromatase [3]; from tables 2 and 4, displacement with respect to the concentration of the inhibitor)	SMILES	storage stability ([1]; even at minus 20° C)	effect by comparison with the hydroxy compound [4]	stability compared with the product of Example 1 [1]
94.4 ± 1.2%	53.8 ± 3.8%	16.2 ± 3.2%	–	–	–	–	–	CCCCC/C=C\C=C\C(O)CCCCCCCC(=O)O (stereo not drawn) [9-hydroxy-10(trans)-12(cis)-octadecadienic acid]	only storable to a limited extent even at minus 20 °C	–	–
–	–	–	58.3 ± 3.6%	19.3 ± 3.4%	6.2 ± 2.9%	stronger aromatase inhibiting effect	about 10 times stronger	CCCCC/C=C\C=C\C(=O)CCCCCCCC(=O)O [9-oxo-10(trans)-12(cis)-octadecadienic acid]	–	10 fold	equally unstable as the product of Example 1
